Values quoted from earlier work as cited in patent US20030059487A1, “Composition and method for the treatment of hypercholesterolemia and hyperlipidemia in mammals” (priority 2001, published 2003).

Conditions: background statement on Lipitor

## CC(C)c1c(C(=O)Nc2ccccc2)c(-c2ccccc2)c(-c2ccc(F)cc2)n1CC[C@@H](O)C[C@@H](O)CC(=O)O [atorvastatin]
  raises HDL cholesterol: 5 to 10%
  reduces LDL: 40 to 60%
  reduces triglycerides: 20 to 40%
